How the values were obtained:
[1] = tested on: Moloney Murine Leukemia Virus; assay: Antiviral screening against Moloney Murine Leukemia Virus (M-MuLV) by XC-assay (plaque reduction, SC-1 cells); assay type: cell-based; conditions: SC1, SC-1/XC cells, Reed-Muench Method, read-out: ID50 (median inhibitory dose, virus plaque number)
Source text: Assay Procedure For Antiviral […] Against Moloney Murine Leukemia Virus (M-MuLV) By XC-Assay: The XC assay system is an indirect method for quantitation of murine-leukemia virus (MULV) originally described by […] et al, Proc. Nat'l. Acad Sci., 63, 753-758, (1969) and modified by W. Rowe et al, Virology, 42, 1136-1139, (1970). This test is based on the development of syncytial changes in the XC cell line when it is co-cultivated with mouse fibroblast cells (SC-1 cells) productively infected with MULV. The XC cell line was derived from a rat tumor induced by the Prague strain of Rous Sarcoma Virus (RSV) (J. Svobada et al, Folia Biol., 9, 77-81, […]). […] The following day, the cells were inoculated with 0.5 mL of a virus dilution containing 25 μg/mL of DEAE-dextran. […] The virus inoculum was then removed and replaced with 5mL of medium containing appropriate concentration of the test compound (two dishes/concentration). […] The medium (with or without the test compound) was changed at 48 hours. Five days after virus inoculation, the culture fluid was decanted and the cells were irradiated with a "GE" germicidal bulb for 30 seconds (60 ergs/mm^2 /sec UV-light). […] Virus plaques (i.e., areas of the cell sheet containing syncytial cells or focal masses of multinucleated giant cells) were counted using an inverted microscope.

HTLV-III/LAV [2] = assay: Fluorescent assay of inhibition of HTLV-III/LAV in MT-2 cells (monoclonal antibody αp18); assay type: cell-based; conditions: day 7 post-infection
HTLV-III/LAV [3] = assay: Inhibition of HTLV-III/LAV cytopathic effect in MT-2 cells (visual inspection); assay type: cell-based; conditions: for % Apparent CPE (destroyed cells / total cells scored): MT-2 cells, day 7 post-infection
MT-2 cells = assay: Viability of HTLV-III/LAV-infected MT-2 cells (trypan blue exclusion); assay type: cell-based; conditions: Homo sapiens, MT2, 168 h, day 7 post-infection, read-out: % Viable Cells (cells that excluded trypan blue / cells scored)
[4] = Water solubility (compared with AZT); assay type: physicochemical; conditions: compared with 3'-azido-3'-deoxythymidine (AZT)
[5] = tested on: retroviruses, e.g., murine leukemia virus and HTLV III/LAV virus; assay: Antiviral activity against retroviruses (general statement); assay type: cell-based; conditions: murine leukemia virus and HTLV III/LAV virus (the AIDS virus)
HTLV-III/LAV virus = conditions: Mitsuya and Broder, supra; cited from earlier work

SMILES	IC50 [1] [µM]	% Fluoresence (fluorescent cells / total cells scored) (HTLV-III/LAV [2]; 0.5 μM) [%]	% Fluoresence (fluorescent cells / total cells scored) (HTLV-III/LAV [2]; 1.0 μM) [%]	% Apparent CPE (destroyed cells / total cells scored) (HTLV-III/LAV [3]; 0.5 μM) [%]	% Apparent CPE (destroyed cells / total cells scored) (HTLV-III/LAV [3]; 1.0 μM) [%]	effective dose compared with 2',3'-dideoxycytidine (HTLV-III/LAV [3]; HTLV-III/LAV infection in vitro, conclusion from Table 2 data)	antiviral activity against HTLV-III/LAV infection in vitro (HTLV-III/LAV [3]; conclusion from Table 2 data)	viability at 0.5 µM (MT-2 cells) [%]	viability at 1 µM (MT-2 cells) [%]	water solubility [4]	antiviral activity against retroviruses [5]	potency against HTLV-III/LAV virus in culture (HTLV-III/LAV virus)
Nc1ccn([C@H]2C=C[C@@H](CO)O2)c(=O)n1 [2',3'-dideoxycytidin-2'-ene]	3.7	5.6 ± 5.5	1.1 ± 0.1	90 ± 0.0	0.5 ± 0.5	effective dose falls in the same range as 2',3'-dideoxycytidine	has antiviral activity against the HTLV-III/LAV infection in vitro	22	90	much better water solubility than that of 3'-azido-3'-deoxythymidine (AZT)	has antiviral activity against retroviruses	–
Nc1ccn([C@H]2CC[C@@H](CO)O2)c(=O)n1 [2',3'-dideoxycytidine, reference compound]	4	4.3 ± 0.3	0.2 ± 0.1	40 ± 10	1.0 ± 0.0	–	–	75	96	–	–	known potent compound against HTLV-III/LAV virus in culture

Reference: patent US6001818A, “Use of 2',3'-dideoxycytidin-2'-ene (2'- ,3'-dideoxy-2'3'-didehydrocytidine) in treating patients infected with retroviruses” (Yale University, priority 1991, dated 1999)
